Measurements: doi:10.1101/2024.08.19.608619, “Discovery of potent SARS-CoV-2 nsp3 macrodomain inhibitors uncovers lack of translation to cellular antiviral response” (bioRxiv, 2024)
Converted amounts (≈) assume the structure as drawn. “And” between values parts separate entries of the source, which are not always exact repeats. Identical values can stand only once. Like-named read-outs stand apart in the source and are kept apart here.

Legend:
[1] = In vitro mouse hepatocyte stability; type: in vitro ADME
Excerpt: (§1) Supplement media-1.zip/Hepatocyte_Stability.csv, table | column: clint; t_half

acetylcholinesterase (h) = molecular target: T1, acetylcholinesterase (h) (Homo sapiens, UniProt P22303); test: In vitro CEREP profiling, acetylcholinesterase (h); type: biochemical; conditions: test compound concentration 10 uM, Enzyme and Cell-based assays
T1 construct: purchased Eurofins Cerep (SafetyScreen44), recognised from the panel format
T1 sequence (P22303 32-614): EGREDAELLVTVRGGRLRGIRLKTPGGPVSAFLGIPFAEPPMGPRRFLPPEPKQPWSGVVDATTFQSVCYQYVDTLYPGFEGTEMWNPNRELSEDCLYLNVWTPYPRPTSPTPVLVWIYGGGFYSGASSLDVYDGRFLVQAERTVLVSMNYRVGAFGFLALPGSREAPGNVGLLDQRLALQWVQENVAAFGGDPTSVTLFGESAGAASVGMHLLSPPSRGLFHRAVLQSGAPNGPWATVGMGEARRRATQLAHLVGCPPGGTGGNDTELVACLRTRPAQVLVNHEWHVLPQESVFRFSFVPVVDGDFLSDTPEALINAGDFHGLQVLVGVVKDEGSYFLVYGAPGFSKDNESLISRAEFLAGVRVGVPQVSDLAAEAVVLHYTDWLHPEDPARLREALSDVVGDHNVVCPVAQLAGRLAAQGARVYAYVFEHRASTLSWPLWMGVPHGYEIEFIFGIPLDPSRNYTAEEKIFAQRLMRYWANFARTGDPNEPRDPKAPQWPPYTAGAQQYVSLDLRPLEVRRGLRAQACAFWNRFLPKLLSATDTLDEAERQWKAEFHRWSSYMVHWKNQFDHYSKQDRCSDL
Excerpt: (§2) Supplement media-1.zip/Safety_Panel_Profile.csv, table | column: perc_inhibition

[2] = Permeability Papp (AB) MDR1/MDCKII; conditions: for papp_b_to_a_mean: B to A; for perc_recovery_a_to_b_mean / perc_recovery_a_to_b_inhibitor_mean: recovery A to B; for perc_recovery_b_to_a_mean / perc_recovery_b_to_a_inhibitor_mean: recovery B to A; for perc_recovery_a_to_b_inhibitor_mean / perc_recovery_b_to_a_inhibitor_mean: MDR1-MDCKII
[3] = Hepatic microsomal stability, HLM; type: in vitro ADME, human; conditions: for perc_remaining_no_cofactor: no cofactor
GSK3β(h) = molecular target: T2, GSK3β(h) (Homo sapiens, UniProt P49841); test: biochemical; parameters: In vitro kinase panel profiling, per cent remaining kinase activity at 10 uM; conditions: atp_concentration=15, read-out: % of control remaining
T2 construct: gene GSK3B
T2 sequence (P49841 whole entry): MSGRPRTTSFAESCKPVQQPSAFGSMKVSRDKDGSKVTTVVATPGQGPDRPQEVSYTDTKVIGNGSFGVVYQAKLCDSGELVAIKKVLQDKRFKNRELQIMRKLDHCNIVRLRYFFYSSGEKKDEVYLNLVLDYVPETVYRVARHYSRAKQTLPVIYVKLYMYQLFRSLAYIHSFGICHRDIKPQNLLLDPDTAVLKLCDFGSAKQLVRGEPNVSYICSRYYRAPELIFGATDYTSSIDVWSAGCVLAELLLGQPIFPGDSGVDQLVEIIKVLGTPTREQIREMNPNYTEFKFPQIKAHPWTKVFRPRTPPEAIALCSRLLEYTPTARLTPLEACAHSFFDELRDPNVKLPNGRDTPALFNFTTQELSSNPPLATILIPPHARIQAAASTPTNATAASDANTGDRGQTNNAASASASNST
Excerpt: (§3) We derisk potential for off-target activity by profiling the compound in a CEREP panel, a standard secondary pharmacology assessment, as well as a kinase panel to derisk a potential hinge-binding motif in our leads, and a PARP panel to derisk activity against human […]. Reassuringly, the compounds are selective, with the only off-targets being moderate human CHRM2 and KOR receptors activity associated with ASAP-0011198.

Lyn(h) = Lyn(h) (Homo sapiens, UniProt P07948); test: biochemical; parameters: In vitro kinase panel profiling, per cent remaining kinase activity at 10 uM; conditions: atp_concentration=70, read-out: % of control remaining
Lyn(h), sequence (P07948 whole entry): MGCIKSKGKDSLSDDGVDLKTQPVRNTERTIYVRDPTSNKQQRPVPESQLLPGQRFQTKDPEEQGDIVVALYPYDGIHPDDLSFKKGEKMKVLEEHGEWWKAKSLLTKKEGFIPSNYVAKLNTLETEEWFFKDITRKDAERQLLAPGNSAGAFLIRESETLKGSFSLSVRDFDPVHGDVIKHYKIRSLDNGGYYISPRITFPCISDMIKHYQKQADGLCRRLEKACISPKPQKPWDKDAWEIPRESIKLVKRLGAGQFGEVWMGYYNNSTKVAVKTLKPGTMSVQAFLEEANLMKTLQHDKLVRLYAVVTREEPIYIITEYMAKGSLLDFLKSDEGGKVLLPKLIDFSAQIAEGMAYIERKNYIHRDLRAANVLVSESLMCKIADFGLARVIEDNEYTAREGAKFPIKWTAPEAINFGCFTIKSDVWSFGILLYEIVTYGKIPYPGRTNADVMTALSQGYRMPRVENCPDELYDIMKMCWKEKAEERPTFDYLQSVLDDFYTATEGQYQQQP
Excerpt: as §3

Fyn(h) = Fyn(h) (Homo sapiens, UniProt P06241); test: biochemical; parameters: In vitro kinase panel profiling, per cent remaining kinase activity at 10 uM; conditions: atp_concentration=70, read-out: % of control remaining
Fyn(h), sequence (P06241 whole entry): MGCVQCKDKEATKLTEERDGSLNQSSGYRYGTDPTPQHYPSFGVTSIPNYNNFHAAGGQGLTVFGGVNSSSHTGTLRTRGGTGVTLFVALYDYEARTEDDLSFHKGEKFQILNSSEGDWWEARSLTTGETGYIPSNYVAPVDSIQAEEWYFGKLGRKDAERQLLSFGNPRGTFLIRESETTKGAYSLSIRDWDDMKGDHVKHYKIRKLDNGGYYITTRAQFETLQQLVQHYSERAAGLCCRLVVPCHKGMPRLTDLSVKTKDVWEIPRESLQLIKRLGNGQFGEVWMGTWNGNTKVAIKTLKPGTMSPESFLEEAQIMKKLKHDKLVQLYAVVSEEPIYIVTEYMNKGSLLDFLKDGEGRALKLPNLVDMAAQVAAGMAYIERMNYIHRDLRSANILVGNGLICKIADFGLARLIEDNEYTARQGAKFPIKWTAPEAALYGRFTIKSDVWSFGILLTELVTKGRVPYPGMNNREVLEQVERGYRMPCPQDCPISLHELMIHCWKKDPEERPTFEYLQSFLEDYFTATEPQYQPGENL
Excerpt: as §3

PKCα(h) = molecular target: T3, PKCα(h) (Homo sapiens, UniProt P17252); test: biochemical; parameters: In vitro kinase panel profiling, per cent remaining kinase activity at 10 uM; conditions: atp_concentration=45, read-out: % of control remaining
T3 construct: gene PRKCA
Excerpt: as §3

Mnk2(h) = molecular target: T4, Mnk2(h) (Homo sapiens, UniProt Q9HBH9); test: biochemical; parameters: In vitro kinase panel profiling, per cent remaining kinase activity at 10 uM; conditions: atp_concentration=120, read-out: % of control remaining
T4 construct: gene MKNK2
T4 sequence (Q9HBH9 whole entry): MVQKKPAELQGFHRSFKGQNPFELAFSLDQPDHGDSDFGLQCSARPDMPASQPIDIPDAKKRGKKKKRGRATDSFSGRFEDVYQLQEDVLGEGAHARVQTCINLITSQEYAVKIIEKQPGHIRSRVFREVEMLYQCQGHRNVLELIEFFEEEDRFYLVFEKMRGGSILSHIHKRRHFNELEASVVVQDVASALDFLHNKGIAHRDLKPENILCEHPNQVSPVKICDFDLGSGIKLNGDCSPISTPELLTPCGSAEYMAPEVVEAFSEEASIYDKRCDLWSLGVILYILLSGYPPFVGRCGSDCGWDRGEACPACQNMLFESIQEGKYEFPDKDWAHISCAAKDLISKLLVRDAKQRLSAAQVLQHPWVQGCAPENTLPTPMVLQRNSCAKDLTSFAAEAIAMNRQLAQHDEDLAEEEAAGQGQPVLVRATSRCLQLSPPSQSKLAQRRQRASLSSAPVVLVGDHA
Excerpt: as §3

PKCθ(h) = molecular target: T5, PKCθ(h) (Homo sapiens, UniProt Q04759); test: biochemical; parameters: In vitro kinase panel profiling, per cent remaining kinase activity at 10 uM; conditions: atp_concentration=15, read-out: % of control remaining
T5 construct: gene PRKCQ
T5 sequence (Q04759 whole entry): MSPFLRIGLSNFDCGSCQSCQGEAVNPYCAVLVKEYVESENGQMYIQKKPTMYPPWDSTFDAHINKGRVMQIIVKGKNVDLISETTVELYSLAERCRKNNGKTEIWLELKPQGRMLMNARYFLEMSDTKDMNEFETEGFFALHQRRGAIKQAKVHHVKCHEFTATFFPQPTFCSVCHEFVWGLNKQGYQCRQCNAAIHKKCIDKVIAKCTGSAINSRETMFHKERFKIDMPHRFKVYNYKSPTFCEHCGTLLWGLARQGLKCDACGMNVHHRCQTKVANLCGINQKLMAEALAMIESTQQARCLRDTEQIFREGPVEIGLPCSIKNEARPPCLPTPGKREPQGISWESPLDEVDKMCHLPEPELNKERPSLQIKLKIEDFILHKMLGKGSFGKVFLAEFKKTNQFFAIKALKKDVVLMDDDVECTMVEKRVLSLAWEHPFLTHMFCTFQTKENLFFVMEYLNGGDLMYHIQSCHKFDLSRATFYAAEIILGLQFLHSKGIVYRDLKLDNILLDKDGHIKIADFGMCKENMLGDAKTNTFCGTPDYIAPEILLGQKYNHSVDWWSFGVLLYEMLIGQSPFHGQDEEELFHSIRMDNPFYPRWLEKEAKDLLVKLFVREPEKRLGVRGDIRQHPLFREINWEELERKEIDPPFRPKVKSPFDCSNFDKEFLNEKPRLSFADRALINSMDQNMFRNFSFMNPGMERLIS
Excerpt: as §3

SRPK1(h) = SRPK1(h) (Homo sapiens, UniProt Q96SB4); test: biochemical; parameters: In vitro kinase panel profiling, per cent remaining kinase activity at 10 uM; conditions: atp_concentration=10, read-out: % of control remaining
SRPK1(h), sequence (Q96SB4 whole entry): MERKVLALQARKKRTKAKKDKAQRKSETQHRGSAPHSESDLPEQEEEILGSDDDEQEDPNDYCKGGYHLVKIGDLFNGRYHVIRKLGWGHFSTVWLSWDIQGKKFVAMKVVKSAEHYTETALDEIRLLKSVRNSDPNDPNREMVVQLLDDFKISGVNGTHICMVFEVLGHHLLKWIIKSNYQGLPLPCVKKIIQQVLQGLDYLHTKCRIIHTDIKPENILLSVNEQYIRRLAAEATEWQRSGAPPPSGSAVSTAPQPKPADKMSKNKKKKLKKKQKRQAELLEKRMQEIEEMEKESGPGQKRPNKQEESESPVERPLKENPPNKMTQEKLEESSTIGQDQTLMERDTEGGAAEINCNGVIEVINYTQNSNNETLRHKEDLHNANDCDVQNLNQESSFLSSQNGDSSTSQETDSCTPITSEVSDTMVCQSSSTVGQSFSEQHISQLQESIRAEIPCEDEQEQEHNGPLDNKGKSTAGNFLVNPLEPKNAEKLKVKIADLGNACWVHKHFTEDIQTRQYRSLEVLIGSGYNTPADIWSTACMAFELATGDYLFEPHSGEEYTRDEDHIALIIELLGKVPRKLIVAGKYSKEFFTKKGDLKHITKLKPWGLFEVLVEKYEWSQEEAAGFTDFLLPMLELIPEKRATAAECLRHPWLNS
Excerpt: as §3

DRAK1(h) = molecular target: T6, DRAK1(h) (Homo sapiens, UniProt Q9UEE5); test: biochemical; parameters: In vitro kinase panel profiling, per cent remaining kinase activity at 10 uM; conditions: atp_concentration=10, read-out: % of control remaining
T6 construct: gene STK17A
T6 sequence (Q9UEE5 1-414): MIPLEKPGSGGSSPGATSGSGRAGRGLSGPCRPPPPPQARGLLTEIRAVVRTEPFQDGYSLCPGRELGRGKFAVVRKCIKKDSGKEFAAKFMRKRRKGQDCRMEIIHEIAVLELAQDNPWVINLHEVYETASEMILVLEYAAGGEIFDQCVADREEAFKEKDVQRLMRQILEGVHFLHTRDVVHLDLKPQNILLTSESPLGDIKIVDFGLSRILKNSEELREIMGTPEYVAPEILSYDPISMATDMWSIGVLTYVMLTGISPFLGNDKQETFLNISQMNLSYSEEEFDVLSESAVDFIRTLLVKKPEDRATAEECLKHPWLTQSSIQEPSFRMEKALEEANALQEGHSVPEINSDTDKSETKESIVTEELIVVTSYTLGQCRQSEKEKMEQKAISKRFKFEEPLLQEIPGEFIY
Excerpt: as §3

[4] = In vitro dog hepatocyte stability; type: in vitro ADME
Excerpt: as §1

[5] = In vitro kinetic solubility; conditions: for solubility_mean: In vitro kinetic solubility, ph 7.4
CCK1 (CCKA) (h) = molecular target: T7, CCK1 (CCKA) (h) (Homo sapiens, UniProt P32238); test: In vitro CEREP profiling, CCK1 (CCKA) (h) (agonist radioligand); type: binding; conditions: test compound 10 uM
T7 construct: purchased Eurofins Cerep (SafetyScreen44), recognised from the panel format
T7 sequence (P32238 1-428): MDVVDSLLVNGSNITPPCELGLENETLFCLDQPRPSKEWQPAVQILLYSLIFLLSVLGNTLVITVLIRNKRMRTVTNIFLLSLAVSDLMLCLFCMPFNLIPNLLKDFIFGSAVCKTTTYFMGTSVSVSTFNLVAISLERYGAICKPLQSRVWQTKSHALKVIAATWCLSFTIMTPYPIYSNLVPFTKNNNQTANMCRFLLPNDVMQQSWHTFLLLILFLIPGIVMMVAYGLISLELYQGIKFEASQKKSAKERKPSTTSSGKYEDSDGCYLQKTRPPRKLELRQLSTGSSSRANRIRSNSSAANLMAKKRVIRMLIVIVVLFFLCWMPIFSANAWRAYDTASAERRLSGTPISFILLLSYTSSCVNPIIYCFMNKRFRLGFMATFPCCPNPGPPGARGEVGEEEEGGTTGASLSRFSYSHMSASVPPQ
Excerpt: as §2

[6] = In vitro MDR1-MDCKII permeability, A to B, mean
[7] = In vitro MDR1-MDCKII permeability, A to B, no inhibitor
[8] = In vitro MDR1-MDCKII permeability, no inhibitor
[9] = In vitro MDR1-MDCKII permeability, mean
[10] = In vitro human liver microsomal stability

| Compound | clint [1] [uL/min/1E6 cells] | t_half [1] | perc_inhibition: % inhibition of control enzyme activity, acetylcholinesterase (h) (acetylcholinesterase (h)) [%] | papp_a_to_b_mean [2, 6] [×10⁻⁶ cm/s] | papp_a_to_b_mean [2, 7] | papp_b_to_a_mean [2, 8] | perc_recovery_a_to_b_mean [2, 9] [%] | perc_recovery_a_to_b_mean [2, 8] | perc_recovery_b_to_a_mean [2, 8] | perc_recovery_a_to_b_inhibitor_mean ([2]; with inhibitor Cyclosporin A) | perc_recovery_b_to_a_inhibitor_mean ([2]; with inhibitor Cyclosporin A) | clint [3, 10] [µL/min/mg] | perc_remaining [3, 10] [%] | t_half [3, 10] [min] | perc_remaining_no_cofactor [3, 10] [%] | clint [4] [uL/min/1E6 cells] | t_half [4] [min] | solubility_mean [5] [µM] | perc_inhibition (% inhibition of the binding of a ligand specific for each target) (CCK1 (CCKA) (h)) [%] | further results |
| --- | --- | --- | --- | --- | --- | --- | --- | --- | --- | --- | --- | --- | --- | --- | --- | --- | --- | --- | --- | --- |
| Cn1ncc(-c2cc3c(N[C@@H](c4ccc5c(n4)OCCO5)C(C)(C)C)ncnc3[nH]2)c1C#N [ASAP-0011221] | 292.0 | 2.37 min | 14 | 14.0 | 2.76 ×10⁻⁶ cm/s | 5.51 ×10⁻⁶ cm/s | 84.8 | 94.8% | 101.0% | 61.6% | 62.4% | 283.0 | 1.0 | 5.9 | 85.0 | 3.81 | 182.0 | 24 (≈ 10.7 µg/mL) | 4 | remaining activity at 10 µM (GSK3β(h); batch_name=ASAP-0011221-002): 98%; remaining activity at 10 µM (Lyn(h); batch_name=ASAP-0011221-002): 101%; remaining activity at 10 µM (Fyn(h); batch_name=ASAP-0011221-002): 82%; remaining activity at 10 µM (PKCα(h); batch_name=ASAP-0011221-002): 87%; remaining activity at 10 µM (Mnk2(h); batch_name=ASAP-0011221-002): 100%; remaining activity at 10 µM (PKCθ(h); batch_name=ASAP-0011221-002): 96%; remaining activity at 10 µM (SRPK1(h); batch_name=ASAP-0011221-002): 117%; remaining activity at 10 µM (DRAK1(h); batch_name=ASAP-0011221-002): 108% |
| CC(C)C(Nc1ncnc2[nH]c(C(=O)NC3CCN(C)C3)cc12)c1ccc2c(c1)S(=O)(=O)CCC2 (stereo not drawn) [ASAP-0011198] | 61.0 | 10.1 min and 11.4 min | – | – | 0.0631 ×10⁻⁶ cm/s | 0.0474 ×10⁻⁶ cm/s | 94.6 | 86.2% and 71.8% | 93.1% and 82.5% | 100.0% and 74.6% | 100.0% and 87.0% | – | 70.0 | 83.8 | 106.0 | – | > 231.0 | – | – | hepatocyte CLint ([1]; mouse, hepatocytes): 68.4 µL/min/1e6 cells; inhibition at 10 µM (acetylcholinesterase (h); read-out: perc_inhibition: % inhibition of control enzyme activity, acetylcholinesterase (h)): 28%; Papp A→B ([2]; dog, MDCK-MDR1, Papp (AB) MDR1/MDCKII, A to B): 2.9 ×10⁻⁶ cm/s; clearance (metabolic stability), in words ([3]; HLM/MLM): low clearance; microsomal CLint ([3]; liver microsomes, In vitro human liver microsomal stability): 20 µL/min/mg; remaining activity at 10 µM (GSK3β(h); batch_name=ASAP-0011198-002): 93%; remaining activity at 10 µM (Lyn(h); batch_name=ASAP-0011198-002): 107%; remaining activity at 10 µM (Fyn(h); batch_name=ASAP-0011198-002): 107%; remaining activity at 10 µM (PKCα(h); batch_name=ASAP-0011198-002): 101%; remaining activity at 10 µM (Mnk2(h); batch_name=ASAP-0011198-002): 99%; remaining activity at 10 µM (PKCθ(h); batch_name=ASAP-0011198-002): 102%; remaining activity at 10 µM (SRPK1(h); batch_name=ASAP-0011198-002): 108%; remaining activity at 10 µM (DRAK1(h); batch_name=ASAP-0011198-002): 105%; hepatocyte CLint ([4]; hepatocytes): < 3 µL/min/1e6 cells; solubility kinetic [5]: 392 µM (≈ 195 µg/mL); solubility ([5]; pH 7.4): 392 µM (≈ 195 µg/mL); inhibition at 10 µM (CCK1 (CCKA) (h); read-out: perc_inhibition (% inhibition of the binding of a ligand specific for each target)): 7% |
| CC(C)[C@H](Nc1ncnc2[nH]ccc12)c1ccc2c(c1)S(=O)(=O)CCC2 [ASAP-0008674] | 567.0 | 1.22 min | 12 | 5.5 | 0.12 ×10⁻⁶ cm/s and 0.0631 ×10⁻⁶ cm/s | 5.9 ×10⁻⁶ cm/s and 5.29 ×10⁻⁶ cm/s | 85.4 | 80.0% and 78.8% | 76.5% and 89.6% | 83.2% | 87.0% | 57.0 | 37.0 | 29.5 | 92.0 | < 3.0 | > 231.0 | 374 (≈ 139 µg/mL) | -2 | efflux_ratio [2, 8]: 49.5 and 83.8; perc_recovery_a_to_b_inhibitor_mean ([2]; with inhibitor Verapamil): 90.5%; perc_recovery_b_to_a_inhibitor_mean ([2]; with inhibitor Verapamil): 86.9%; remaining activity at 10 µM (GSK3β(h); batch_name=ASAP-0008674-002): 94%; remaining activity at 10 µM (Lyn(h); batch_name=ASAP-0008674-002): 104%; remaining activity at 10 µM (Fyn(h); batch_name=ASAP-0008674-002): 96%; remaining activity at 10 µM (PKCα(h); batch_name=ASAP-0008674-002): 98%; remaining activity at 10 µM (Mnk2(h); batch_name=ASAP-0008674-002): 98%; remaining activity at 10 µM (PKCθ(h); batch_name=ASAP-0008674-002): 88%; remaining activity at 10 µM (SRPK1(h); batch_name=ASAP-0008674-002): 100%; remaining activity at 10 µM (DRAK1(h); batch_name=ASAP-0008674-002): 117% |
